ChEMBL document CHEMBL1201862, “PubChem BioAssay data set” (2004)
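Tested at 5 concentrations; 48 h exposure; 96-well plates; endpoints linearly interpolated, else capped at highest concentration. At the GI50, growth is halved.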 The source made the active and inactive calls. Cut-off read from the data, not from the text of the source: active = GI50 up to about 1.1 µM and inactive = higher.

Columns and labels:
Experiment in all cases: inhibition of tumour cell growth, NCI panel, 48 h
[1] = test system: A549
[2] = test system: ACHN
[3] = test system: CAKI-1
[4] = test system: COLO 205
[5] = test system: EKVX
[6] = test system: HCT-116
[7] = test system: HOP-62
[8] = test system: KM12
[9] = test system: NCI-H23
[10] = test system: SF-268
[11] = test system: SF-295
[12] = test system: SK-MEL-2
[13] = test system: SN12C
[14] = test system: TK-10
[15] = test system: U-251
[16] = test system: UACC-257
[17] = test system: UO-31
[18] = test system: SNB-19

Measured: GI50

COc1cc(OC)c(C2CC=Cc3c(OC)cc(OC)c(OC)c32)cc1OC (stereo not drawn)
inactive: [1] > 100 µM | [2] > 100 µM | [3] > 100 µM | [4] > 100 µM | [5] > 100 µM | [6] > 100 µM | [7] > 100 µM | [8] > 100 µM | [9] > 100 µM | [10] > 100 µM | [11] > 100 µM | [12] > 100 µM | [13] > 100 µM | [14] > 100 µM | [15] > 100 µM | [16] > 100 µM | [17] > 100 µM

CCCCCC/C(CC(=O)CCC(=O)NCCc1ccccc1)=N\Nc1ccc([N+](=O)[O-])cc1[N+](=O)[O-]
inactive: [1] 87.7 µM | [2] 97.7 µM | [3] > 100 µM | [4] 64.3 µM | [5] 38.7 µM | [6] 36.7 µM | [7] > 100 µM | [8] 67.8 µM | [9] 45 µM | [10] 71.6 µM | [11] > 100 µM | [12] > 100 µM | [13] 82 µM | [18] > 100 µM | [14] > 100 µM | [15] 97.1 µM | [16] 74.8 µM | [17] 61.9 µM

O=C1C=CC(=O)c2cc(Sc3ccccc3)c(=O)c(Sc3ccccc3)cc21
inactive: [1] 56.5 µM | [2] 12.8 µM | [3] > 100 µM | [4] 73.3 µM | [5] > 100 µM | [6] 32.6 µM | [7] > 100 µM | [8] > 100 µM | [9] 47.2 µM | [10] 42 µM | [11] > 100 µM | [12] > 100 µM | [13] > 100 µM | [18] > 100 µM | [14] 64.3 µM | [15] 46.3 µM | [16] > 100 µM | [17] 37.8 µM

CN(C)/N=N/c1ccc(S(N)(=O)=O)cc1
inactive: [1] > 100 µM | [2] > 100 µM | [3] > 100 µM | [4] > 100 µM | [5] > 100 µM | [6] > 100 µM | [7] > 100 µM | [8] > 100 µM | [9] > 100 µM | [10] > 100 µM | [11] > 100 µM | [12] > 100 µM | [13] > 100 µM | [18] > 100 µM | [14] > 100 µM | [15] > 100 µM | [16] > 100 µM | [17] > 100 µM

Cc1cccc(N2C(=O)C(=O)C(c3nc4ccccc4s3)/C(=N/NC(=S)NN)C2=O)c1C (stereo not drawn)
inactive: [2] > 100 µM | [3] > 100 µM | [4] > 100 µM | [5] > 100 µM | [6] > 100 µM | [7] > 100 µM | [8] > 100 µM | [9] > 100 µM | [10] > 100 µM | [11] > 100 µM | [12] > 100 µM | [13] > 100 µM | [18] > 100 µM | [14] > 100 µM | [15] > 100 µM | [16] > 100 µM | [17] > 100 µM

COc1c(C(=O)c2ccc([N+](=O)[O-])cc2)cc(C(C)(C)C)cc1C(C)(C)C
inactive: [1] 31 µM | [2] 31.3 µM | [3] 41.6 µM | [5] 47.4 µM | [6] 18.8 µM | [7] 49.5 µM | [8] 16.9 µM | [9] 34.7 µM | [10] 34.4 µM | [11] 39.1 µM | [12] 13.4 µM | [13] 39 µM | [18] 48.5 µM | [14] 13.8 µM | [15] 19.1 µM | [16] 22.9 µM | [17] 40.8 µM

CCOC(=O)/C(C#N)=C\C=C1/C=CN=C2NCCN21
inactive: [1] > 100 µM | [2] 80.9 µM | [3] > 100 µM | [4] > 100 µM | [5] > 100 µM | [6] > 100 µM | [7] > 100 µM | [8] > 100 µM | [9] > 100 µM | [10] > 100 µM | [11] > 100 µM | [12] > 100 µM | [13] > 100 µM | [18] > 100 µM | [14] > 100 µM | [15] > 100 µM | [16] > 100 µM | [17] > 100 µM

COc1cc2ccn3c4cc(OC)c(OC)cc4cc3c2cc1OC
inactive: [1] > 100 µM | [2] > 100 µM | [3] 29.6 µM | [4] > 100 µM | [5] 98.2 µM | [6] 32.8 µM | [7] > 100 µM | [8] > 100 µM | [9] > 100 µM | [10] > 100 µM | [11] > 100 µM | [12] > 100 µM | [13] > 100 µM | [18] > 100 µM | [14] > 100 µM | [15] > 100 µM | [16] > 100 µM | [17] > 100 µM

O=[N+]([O-])c1cccc(C2ON2C2CCCCC2)c1 (stereo not drawn)
inactive: [1] 30.1 µM | [2] 17.5 µM | [3] 24.2 µM | [4] 17.6 µM | [5] 44 µM | [6] 13.5 µM | [7] 31.1 µM | [8] 8.81 µM | [9] 24.7 µM | [10] 23.3 µM | [11] > 100 µM | [12] 25.5 µM | [13] 18.3 µM | [18] 29.1 µM | [14] 30.3 µM | [15] 3.98 µM | [16] 21.6 µM | [17] 22.6 µM

CCOP(=O)(Cc1ccc(CP(=O)(OCC)OCC)n1C)OCC
inactive: [1] > 100 µM | [2] > 100 µM | [3] > 100 µM | [4] > 100 µM | [5] > 100 µM | [7] > 100 µM | [8] > 100 µM | [9] > 100 µM | [10] > 100 µM | [11] > 100 µM | [12] > 100 µM | [13] > 100 µM | [18] > 100 µM | [14] > 100 µM | [15] > 100 µM | [16] > 100 µM | [17] > 100 µM

Cc1cc2c(cc1C)NC(=O)C(NC(=O)/C=C/c1ccccc1)C=N2 (stereo not drawn)
inactive: [1] 30.7 µM | [2] 41.9 µM | [3] 31.3 µM | [4] 18.1 µM | [5] > 100 µM | [6] 20.8 µM | [7] > 100 µM | [8] 19.5 µM | [10] 29.9 µM | [11] 50.8 µM | [12] 24.5 µM | [13] 38.8 µM | [18] 64.3 µM | [14] 50.6 µM | [15] 23.9 µM | [16] 24.3 µM | [17] 29.6 µM
